Structures can show the parent of a compound that is named as a salt. Where two headings read alike, the source gives them in different places.

Series [1] relates to Chinese hamster V79-379 lung fibroblasts. In words: Uptake of phthalocyanines into V79 cells. The following applies: V79 cells, 1.0 μM, 18 hours. Put shortly:
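V79-379 cells were incubated with phthalocyanine for 18 h, typically at 1, 2 and/or 4 μM. Cells collected on filters were extracted into ethanol and absorbance read at the peak, usually 668 nm. Values are nmol per 10^6 cells, using ε 2.93×10^5.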

A further series concerns L5178Y cells. In words: Induction of apoptosis (DNA ladder) in L5178Y cells after PDT. The class given is cell-based, Mouse. The following applies: for induction of apoptosis: 1 μM at a fluence of 30 kJ/m^2; for Fluence, Minimum Demonstrated Condition to Induce Apoptosis / C × F Ld90, Minimum Demonstrated Condition to Induce Apoptosis: 0.5 μM; for Fluence, Minimum Demonstrated Condition to Induce Apoptosis: suspended in DMF-Tween 80; for C × F Ld90, Minimum Demonstrated Condition to Induce Apoptosis: suspended in DMF-Tween 80, product of concentration and fluence.

The nature of a further series: Solubility. The format is physicochemical.
Series [2] has as its system Chinese hamster V79-379 lung fibroblasts. In words: Growth delay of V79 cultures after phthalocyanine and red light. The class given is cell-based. The following applies: V79 cells, 1.0 μM, 18 hours, 12 kJ/m^2 red light. On the procedure: At the time of light exposure, there were approximately 1.5×10^5 cells per 25 cm^2 flask. Following irradiation, the HBSS was replaced by 10 mL of fresh complete growth medium, and the cultures were returned to the 37° C. incubator. At various times before and after irradiation, duplicate cultures were trypsinized and counted. Controls included untreated cells and cells treated with light alone or drug alone. In addition, in each experiment, the drug to be tested was compared to a standard treatment, i.e. 1 μM AlPcCl for 18 hours followed by 12 kJ/m^2 light.
The inhibition of V79 culture growth was measured during a three day period following red light irradiation (12 kJ/m^2) of phthalocyanine-pretreated cells. With each of the active compounds, as well as with AlPcCl, there was an initial decrease in cell density, as dead cells became detached from the monolayer. Thereafter, the cell number per flask increased, as living cells grew and divided. The time for the cell density to recover to the level at the time of light exposure was considered the growth delay. […] The ratio of the growth delay for the test photosensitizer and the growth delay for AlPcCl measured in the same experiment is recorded in Table 1. There was less inhibition of culture growth when cells were exposed to compounds III, V, or VI as expected from the poor cellular uptake of these drugs.

For series [3], the system named is human skin keratome biopsies. In words: Penetration of topically applied PcIV and salts into human skin, confocal fluorescence microscopy. The format is in vitro ADME. The procedure: Human skin absorption of PcIV was analyzed by fluorescence confocal microscopy. PcIV fluorescence, upon activation with a HeNe laser at 633 nm, was visualized using a 650 long pass filter. Briefly, 0.4 mm thick human keratomes were removed from the gluteal region of healthy volunteers and divided into 1.5 cm×1.5 cm squares of skin. Upon application of PcIV to the epidermis in a vehicle of ethanol and propylene glycol, visualization of penetration of PcIV was achieved by fluorescence. Pc 4 was then prepared as PcIV-pyruvate and PcIV-HCl and applied in the same vehicle as Pc 4 to the epidermis. Three concentrations, namely, 0.1 mg/mL, 0.05 mg/mL, and 0.01 mg/mL were tested per PcIV formulation. Skin was incubated at 37° C. for 1, 2, and 4 hours, along with vehicle controls. […] Maximum PcIV fluorescence was detectable using laser transmission of 3% for the 0.1 mg/mL and 30% for the 0.01 mg/mL. Both PcIV.pyruvate and PcIV.HCl however could be visualized with a laser transmission of 2-3% for the 0.1 mg/mL and 7-9% for the 0.01 mg/mL concentrations.
The ability of PcIV and the newly prepared PcIV salts (HCl and pyruvate) to penetrate into the epidermis of keratome derived biopsies was examined. The time course of penetrance as well as the effect of dose of the PcIV compounds were evaluated. PcIV and the PcIV.HCl and PcIV.pyruvate salts were resuspended in ethanol (100%, 1 part PcIV, 499 parts ethanol) and then diluted to final concentrations in a 30% Propylene Glycol 70% Ethanol mixture.
Keratome biopsies of normal skin were obtained from normal volunteers after written consent according to UHHS IRB protocol # 05-95-03. To date, seven experiments have been performed. The range of age for volunteers was 20-40 yrs. Individuals represented Fitzpatrick skin types between I-III. Skin biopsies were held in PBS following the keratome procedure until processed for PcIV Application (less than 1 hr). The keratome skin samples (1.5 cm^2) were overlayed onto sterile gauze in 80 mm tissue culture petri dishes epidermal side down. PcIV compounds were then applied to the corners of the sterile gauze and allowed to “wick” through the gauze and contact the epidermis of the skin for the indicated times. Following the incubation, the tissue was removed from the gauze and washed three times in phosphate buffered saline and held, in PBS, until analysis by confocal microscopy. Confocal images were acquired using a 20×N.A. 0.5 water immersion objective on a Zeiss 510 confocal microscope. PcIV fluorescence was elicited using a 633 nm wavelength for excitation, and collected with a 633 nm dichroic mirror and 650 nm long-pass filter.

Series [4] deals with human breast cancer MCF-7c3 cells. In words: Uptake of PcIV salts into MCF-7c3 cells by flow cytometry. The following applies: 50, 100 or 200 nM, 60 minutes, mean channel fluorescence normalized to PcIV.
Procedure: Cells were grown in 5 mL of RPMI-1640 medium supplemented with 10% fetal calf serum in 60-mm diameter Petri dishes in a 37° C. incubator in an atmosphere of 5% CO2, 95% air. Cultures were used when they were in exponential growth. For experiments, various concentrations (50, 100, or 200 nM) of each compound (PcIV, PcIV-HCl, PcIV-pyruvate), were added to the medium above the cells, and the dishes were returned to the incubator for 60 minutes to allow the photosensitizers to enter the cells. To evaluate uptake, the medium was removed, and the cells were detached from the plastic surface with trypsin and collected by centrifugation. The cell pellet was suspended in phenol-red-free Hank's balanced salt solution and analyzed by flow cytometry (λex=335-355 nm; emission collected through a 650-nm long-pass filter). For each cell sample, the data were expressed as the mean channel fluorescence and background was subtracted. Data for each concentration of the PcIV salts were then normalized to those for the same concentration of PcIV in the same experiment. […] Error bars represent the standard deviation of the mean.
In series [5] the test system is RIF-1 (radiation-induced fibrosarcoma) tumors. Put plainly: PDT of RIF-1 implanted tumors. The class given is in vivo, C3H/HeN mice. Details: key to Tumor Responses at 24 hours: complete: no evidence of any tumor mass in any animal; only the scar from the photodynamic therapy was evident.; near complete: evidence of any tumor mass in four or five animals; only some tumor mass in one or two animals.; substantial: a significant tumor shrinkage occurred in all animals. In some animals the tumor response was complete, yet in others the response was not complete.; moderate: some tumor shrinkage was evident in some animals. In animals with some tumor shrinkage, scar formation was evident.; slight: some tumor decrease occurred in one or two mice. The following applies: 1 mg/kg in corn oil, 675 nm. The procedure:
The relative effectiveness at reducing tumor volume of selected phthalocyanine compounds at a given dosage was compared in vivo. RIF-1, i.e., radiation-induced fibrosarcoma, tumors were implanted into the backs of C3H/HeN mice. One tumor was implanted per mouse. Each of the phthalocyanine compounds listed in Table 7 was sonicated and vortexed in corn oil to produce a suspension. When the tumors reached […] in diameter and 2-3 mm in thickness, each mouse received 1 mg/kg in 0.1 mL of the corn oil, of the phthalocyanine suspension. For comparison, select mice received a conventional photosensitizer; either 5 mg/kg of chloroaluminum phthalocyanine tetrasulfonate, herein also referred to as “AlPcTS” in phosphate buffered saline or 5 mg/kg of Photofrin®-II in 5% dextrose. Twenty-four hours after the photosensitizers were administered, the tumors were irradiated with visible radiation delivered by an argon-pumped dye laser. The mice that received a phthalocyanine photosensitizer received light having a wavelength of 675 nm and the mice that received the Photofrin® II photosensitizer received light having a wavelength of 630 nm. Each tumor received 135 J/cm^2 of radiation. Tumor size was measured every day using calipers. The initial tumor volume was 50±10 mm^3. Tumor volume was calculated according to the hemiellipsoid model by the formula: V=½(4π)/3×(½×(w/2))×h
• complete—no evidence of any tumor mass in any animal; only the scar from the photodynamic therapy was evident. • near complete—evidence of […] in four or five animals; only some tumor mass in one or two animals. • substantial—a significant tumor shrinkage occurred in all animals. In some animals the tumor response was complete, yet in others the response was not complete. • moderate—some tumor shrinkage was evident in some animals. In animals with some tumor shrinkage, scar formation was evident. • slight—some tumor decrease occurred in one or two mice.

Series [6] deals with Chinese hamster V79-379 lung fibroblasts. Put plainly: Clonogenic cell survival of V79 cells after photodynamic treatment. The format is cell-based. The following applies: for CF10(AIPcCI)/CF10 (Pc) / F10(AIPcCI)/F10 (Pc): 1.0 μM; for CF10(AIPcCI)/CF10 (Pc): CF10 = product of intracellular concentration and fluence reducing survival to 10%; for F10(AIPcCI)/F10 (Pc): F10 = fluence reducing cell survival to 10%. Put shortly: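 V79 cells exposed to 0.5 or 1.0 μM phthalocyanine, then irradiated about 18 h later with increasing fluences of broad-band red light (600 nm high-pass filter). Survival scored as colonies of ≥50 cells. F10 taken from survival curves; CF10 from survival against intracellular concentration × fluence; 1 μM AlPcCl run as reference.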

Series [7] is described as follows: Photolysis of solutions by white light. The format is physicochemical.

Procedure for L5178Y cells: The cells were used while in exponential growth. Stock solutions of either 0.5 or 1 mM of PcIV, PcXII, PcX, PcXVIII were prepared in dimethylformamide unless otherwise indicated and added to the 10 mL medium at a rate of 1 μL per mL. After allowing 18 hours for uptake of the phthalocyanine into the cells, the flasks containing the cultures were placed on a glass exposure tray above a 500-W tungsten-halogen lamp. The exposure tray was fitted with a 600-nm high-pass filter. Flasks were exposed to various fluences of red light (up to 30 kJ/m^2) at a fluence rate of approximately 74 W/m^2). After irradiation, the cells were collected by centrifugation.
The aliquots were plated in sufficient numbers to produce 50-200 colonies. The dishes were kept in an incubator at 37° C. in an atmosphere of 5% CO2 and 95% air for 10-14 days to allow viable cells to form colonies. Colonies were counted by eye. […] The plating efficiencies of the treated cells are normalized to the plating efficiencies of control cells in each experiment.
Cells were treated with various concentrations of the compounds listed in the table and various light fluences. DNA gels were prepared and examined for the characteristic “ladder” pattern of DNA fragments. For each Pc, the minimum total PDT dose tested (calculated as the product of the minimum phthalocyanine concentration and the minimum fluence) which produced visible DNA fragments is recorded. […] PcXVIII was also added at 0.5 and 1.0 μM.

Consider `C[N+](C)(C)CCC[Si](C)(C)O[Si]1(O[Si](C)(C)CCC[N+](C)(C)C)n2c3c4ccccc4c2N=C2N=C(N=c4c5ccccc5c(n41)=NC1=NC(=N3)c3ccccc31)c1ccccc12.[I-].[I-]` [Compound VI, SiPc[OSi(CH3)2(CH2)3N(CH3)3)^+I^−]2], for which the “Uptake, Efficiency Relative to 1 μM (AlPcCl)” value in series [1] was determined as 0.1. Further, the induction of apoptosis entry with L5178Y cells was “did not induce apoptosis”. Besides, the “solubility in H2O” value in the series “Solubility” is listed as “disperses in H2O but doses not dissolve in it”. Also, in [2], the “Growth Delay (12 kj/m^2), Efficiency Relative to 1 μM (AlPcCl)” value worked out at 0.5.
For `CN(C)CCC[Si](C)(C)O[Si]1(O)n2c3c4ccccc4c2N=C2N=C(N=c4c5ccccc5c(n41)=NC1=NC(=N3)c3ccccc31)c1ccccc12` (stereo not drawn) [PcIV-HCl, HOSiPcOSi(CH3)2(CH2)3N(CH3)2(HCl)], in series [3], the “effect of salt formulation on penetration through the skin” value is given as “does not hinder the penetration”.
With `CC(=O)C(=O)O.CN(C)CCC[Si](C)(C)O[Si]1(O)n2c3c4ccccc4c2N=C2N=C(N=c4c5ccccc5c(n41)=NC1=NC(=N3)c3ccccc31)c1ccccc12` (stereo not drawn) [PcIV-pyruvate, HOSiPcOSi(CH3)2(CH2)3N(CH3)2(CH3C(O)COOH)], the “effect of salt formulation on penetration through the skin” value in series [3] (compared to PcIV) is on record as “does not hinder the penetration”. In addition, the “efficiency in entering MCF-7c3 cells compared to PcIV” value in series [4] is “at least as efficient, and possibly more efficient”.
Take `C[N+](C)(C)CCC[Si](C)(C)O[Si]1(O)n2c3c4ccccc4c2N=C2N=C(N=c4c5ccccc5c(n41)=NC1=NC(=N3)c3ccccc31)c1ccccc12.[I-]` (stereo not drawn) [Compound V, HOSiPcOSi(CH3)2(CH2)3N(CH3)3^+I^−]: the “Tumor Responses at 24 hours” value in series [5] (135 J/cm^2, light 24 h after dosing) is recorded as “moderate”. Further, in [5] (135 J/cm^2, controls 4 days), the “Doubling Time of Initial Tumor Volume after PDT” value was found to be 6 days. Besides, the “Uptake, Efficiency Relative to 1 μM (AlPcCl)” value in [1] was found to be 0.3. In the series on L5178Y cells, the induction of apoptosis entry is “did not induce apoptosis”. Moreover, in the series “Solubility”, the “solubility in H2O” value is reported as “insoluble”. Besides, in [6], the “CF10(AIPcCI)/CF10 (Pc)” value came to 3.0 and the “F10(AIPcCI)/F10 (Pc)” value was found to be 0.59. In addition, the “Growth Delay (12 kj/m^2), Efficiency Relative to 1 μM (AlPcCl)” value in series [2] worked out at 0.
On to `C[Si](C)(CCCN1CCNCC1)O[Si]1(O[Si](C)(C)CCCN2CCNCC2)n2c3c4ccccc4c2N=C2N=C(N=c4c5ccccc5c(n41)=NC1=NC(=N3)c3ccccc31)c1ccccc12` [Compound XXXII, SiPc[OSi(CH3)2(CH2)3NC4H8NH]2], for which, in the series on L5178Y cells, the “Fluence, Minimum Demonstrated Condition to Induce Apoptosis” value was 5 kJ/m^2 and the “C × F Ld90, Minimum Demonstrated Condition to Induce Apoptosis” value is listed as 2.5 kJ/m^2. Further, the “solubility in DMF” value in the series “Solubility” is recorded as “not soluble in DMF”.
With `CN(C)CCC[Si](C)(C)O[Si]1(C)n2c3c4ccccc4c2N=C2N=C(N=c4c5ccccc5c(n41)=NC1=NC(=N3)c3ccccc31)c1ccccc12` (stereo not drawn) [Compound III, CH3SiPcOSi(CH3)2(CH2)3N(CH3)2], the photolysis of solutions result in series [7] was “rapidly photolyzed by white light”. Besides, in series [1], the “Uptake, Efficiency Relative to 1 μM (AlPcCl)” value is 0.07. In addition, in [2], the “Growth Delay (12 kj/m^2), Efficiency Relative to 1 μM (AlPcCl)” value was determined as 0.05.
Consider “AlPcOSi(CH3)2(CH2)3N(CH3)3^+I^− [Compound II]”, for which, in [1], the “Uptake, Efficiency Relative to 1 μM (AlPcCl)” value was 1.8. In addition, the “solubility in H2O” value in the series “Solubility” is given as “insoluble”. In [6], the “CF10(AIPcCI)/CF10 (Pc)” value was 0.72 and the “F10(AIPcCI)/F10 (Pc)” value was determined as 0.99. The “Growth Delay (12 kj/m^2), Efficiency Relative to 1 μM (AlPcCl)” value in series [2] is 3.4.
As for `CN1CCN(CCC[Si](C)(C)O[Si]2(O[Si](C)(C)CCCN3CCN(C)CC3)n3c4c5ccccc5c3N=C3N=C(N=c5c6ccccc6c(n52)=NC2=NC(=N4)c4ccccc42)c2ccccc23)CC1` [Compound XXX, SiPc[OSi(CH3)2(CH2)3NC4H8NCH3]2], in the series on L5178Y cells, the “Fluence, Minimum Demonstrated Condition to Induce Apoptosis” value was determined as 15.0 kJ/m^2 and the “C × F Ld90, Minimum Demonstrated Condition to Induce Apoptosis” value came to 7.5 kJ/m^2. The “solubility in DMF” value in “Solubility” is on record as “not soluble in DMF”. Besides, the “Maximum Effect (% survival at kj/m^2)” value in series [6] (concentration not given, at 10 kj/m^2) is 30% at 10.

(Values after patent US8211883B2, “Topical delivery of phthalocyanines” (priority 2004, dated 2012).)
